In PubChem BioAssay AID2060627 (Molecular Pharmacology Branch, DTP, NCI, 2025):
pIC50: −log10 of the molar value.

Tested on: 156681-154-R-J1-PDC complex spheroid viability
Experiment: Anticancer human tumor 156681-154-R-J1-PDC patient-derived melanoma cell line growth inhibition [CLK]
Conditions: for pIC50: curve of first compound; for viability, T/C: stronger effect = lower value
How it was run: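 Patient-derived tumor cells grown as complex spheroids with HUVEC endothelial cells and mesenchymal stem cells, treated with drug combinations. Concentrations descend in half-log steps from near clinical Cmax, or from 10 microM if Cmax unknown.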

[1] = second compound 0.0316 µM, first compound 0.0316 µM
[2] = second compound 0.0316 µM, first compound 0.1 µM
[3] = second compound 0.1 µM, first compound 0.0316 µM
[4] = second compound 0.1 µM, first compound 0.1 µM
[5] = second compound 0.316 µM, first compound 0.0316 µM
[6] = second compound 0.316 µM, first compound 0.1 µM
[7] = second compound 1 µM, first compound 0.0316 µM
[8] = second compound 1 µM, first compound 0.1 µM
[9] = second compound 3.16 µM, first compound 0.0316 µM
[10] = second compound 3.16 µM, first compound 0.1 µM
[11] = second compound 10 µM, first compound 0.0316 µM
[12] = second compound 10 µM, first compound 0.1 µM
[13] = second compound 0.0316 µM, first compound 0.316 µM
[14] = second compound 0.0316 µM, first compound 1 µM
[15] = second compound 0.0316 µM, first compound 3.16 µM
[16] = second compound 0.0316 µM, first compound 10 µM
[17] = second compound 0.1 µM, first compound 0.316 µM
[18] = second compound 0.1 µM, first compound 1 µM
[19] = second compound 0.1 µM, first compound 3.16 µM
[20] = second compound 0.1 µM, first compound 10 µM
[21] = second compound 0.316 µM, first compound 0.316 µM
[22] = second compound 0.316 µM, first compound 1 µM
[23] = second compound 0.316 µM, first compound 3.16 µM
[24] = second compound 0.316 µM, first compound 10 µM
[25] = second compound 1 µM, first compound 0.316 µM
[26] = second compound 1 µM, first compound 1 µM
[27] = second compound 1 µM, first compound 3.16 µM
[28] = second compound 1 µM, first compound 10 µM
[29] = second compound 3.16 µM, first compound 0.316 µM
[30] = second compound 3.16 µM, first compound 1 µM
[31] = second compound 3.16 µM, first compound 3.16 µM
[32] = second compound 3.16 µM, first compound 10 µM
[33] = second compound 10 µM, first compound 0.316 µM
[34] = second compound 10 µM, first compound 1 µM
[35] = second compound 10 µM, first compound 3.16 µM
[36] = second compound 10 µM, first compound 10 µM
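Note: spheroids exposed to the agents for seven days.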
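Throughout, for viability, T/C: 100% = DMSO vehicle control viability.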

## Cn1ncnc1[C@H]1c2n[nH]c(=O)c3cc(F)cc(c23)N[C@@H]1c1ccc(F)cc1 + CNC(=O)c1ccc(Nc2nc(OC3CCCC3)c3c(-c4ccc5nc(C)oc5c4)c[nH]c3n2)c(OC)c1
Second compound 0.0316 µM
  pIC50: < 7.00
Second compound 0.1 µM
  pIC50: < 7.00
Second compound 0.316 µM
  pIC50: < 7.00
Second compound 1 µM
  pIC50: 9.50
Second compound 3.16 µM
  pIC50: > 9.50
Second compound 10 µM
  pIC50: > 9.50
Second compound 0.0316 µM, first compound 0.000316 µM
  viability, T/C: 91.5%
Second compound 0.0316 µM, first compound 0.001 µM
  viability, T/C: 87.8%
Second compound 0.0316 µM, first compound 0.00316 µM
  viability, T/C: 74.9%
Second compound 0.0316 µM, first compound 0.01 µM
  viability, T/C: 84.6%
[1]
  viability, T/C: 83.2%
[2]
  viability, T/C: 64.1%
Second compound 0.1 µM, first compound 0.000316 µM
  viability, T/C: 56.9%
Second compound 0.1 µM, first compound 0.001 µM
  viability, T/C: 68.6%
Second compound 0.1 µM, first compound 0.00316 µM
  viability, T/C: 75.9%
Second compound 0.1 µM, first compound 0.01 µM
  viability, T/C: 66.6%
[3]
  viability, T/C: 62.3%
[4]
  viability, T/C: 53.5%
Second compound 0.316 µM, first compound 0.000316 µM
  viability, T/C: 67%
Second compound 0.316 µM, first compound 0.001 µM
  viability, T/C: 68.4%
Second compound 0.316 µM, first compound 0.00316 µM
  viability, T/C: 55.4%
Second compound 0.316 µM, first compound 0.01 µM
  viability, T/C: 58.4%
[5]
  viability, T/C: 60%
[6]
  viability, T/C: 51.9%
Second compound 1 µM, first compound 0.000316 µM
  viability, T/C: 51.8%
Second compound 1 µM, first compound 0.001 µM
  viability, T/C: 51.1%
Second compound 1 µM, first compound 0.00316 µM
  viability, T/C: 39.8%
Second compound 1 µM, first compound 0.01 µM
  viability, T/C: 44.3%
[7]
  viability, T/C: 53.6%
[8]
  viability, T/C: 29.3%
Second compound 3.16 µM, first compound 0.000316 µM
  viability, T/C: 55.1%
Second compound 3.16 µM, first compound 0.001 µM
  viability, T/C: 41.5%
Second compound 3.16 µM, first compound 0.00316 µM
  viability, T/C: 43.6%
Second compound 3.16 µM, first compound 0.01 µM
  viability, T/C: 49.5%
[9]
  viability, T/C: 39.5%
[10]
  viability, T/C: 33.1%
Second compound 10 µM, first compound 0.000316 µM
  viability, T/C: 49.3%
Second compound 10 µM, first compound 0.001 µM
  viability, T/C: 43.9%
Second compound 10 µM, first compound 0.00316 µM
  viability, T/C: 33.6%
Second compound 10 µM, first compound 0.01 µM
  viability, T/C: 32.5%
[11]
  viability, T/C: 38.6%
[12]
  viability, T/C: 25.4%

## Nc1ccn(C2OC(CO)C(O)C2(F)F)c(=O)n1 (stereo unspecified) + CNC(=O)c1ccc(Nc2nc(OC3CCCC3)c3c(-c4ccc5nc(C)oc5c4)c[nH]c3n2)c(OC)c1
Second compound 0.0316 µM
  pIC50: > 7.50
Second compound 0.1 µM
  pIC50: > 7.50
Second compound 0.316 µM
  pIC50: > 7.50
Second compound 1 µM
  pIC50: > 7.50
Second compound 3.16 µM
  pIC50: > 7.50
Second compound 10 µM
  pIC50: > 7.50
[1]
  viability, T/C: 12.3%
[2]
  viability, T/C: 15.9%
[13]
  viability, T/C: 13.6%
[14]
  viability, T/C: 17.9%
[15]
  viability, T/C: 15.6%
[16]
  viability, T/C: 15.2%
[3]
  viability, T/C: 13.2%
[4]
  viability, T/C: 13.4%
[17]
  viability, T/C: 14.2%
[18]
  viability, T/C: 16.1%
[19]
  viability, T/C: 15.7%
[20]
  viability, T/C: 14%
[5]
  viability, T/C: 15.7%
[6]
  viability, T/C: 11.9%
[21]
  viability, T/C: 19%
[22]
  viability, T/C: 13%
[23]
  viability, T/C: 12.2%
[24]
  viability, T/C: 12.5%
[7]
  viability, T/C: 20.5%
[8]
  viability, T/C: 11.2%
[25]
  viability, T/C: 7.8%
[26]
  viability, T/C: 9.13%
[27]
  viability, T/C: 12.3%
[28]
  viability, T/C: 10.8%
[9]
  viability, T/C: 25.3%
[10]
  viability, T/C: 12.3%
[29]
  viability, T/C: 9.98%
[30]
  viability, T/C: 7.12%
[31]
  viability, T/C: 11.4%
[32]
  viability, T/C: 7.7%
[11]
  viability, T/C: 28.5%
[12]
  viability, T/C: 12.4%
[33]
  viability, T/C: 9.66%
[34]
  viability, T/C: 9.99%
[35]
  viability, T/C: 12.1%
[36]
  viability, T/C: 7.49%

## O=c1[nH]cc(F)c(=O)[nH]1 + CNC(=O)c1ccc(Nc2nc(OC3CCCC3)c3c(-c4ccc5nc(C)oc5c4)c[nH]c3n2)c(OC)c1
Second compound 0.0316 µM
  pIC50: 5.10
Second compound 0.1 µM
  pIC50: 5.26
Second compound 0.316 µM
  pIC50: 5.47
Second compound 1 µM
  pIC50: 5.39
Second compound 3.16 µM
  pIC50: > 7.50
Second compound 10 µM
  pIC50: > 7.50
[1]
  viability, T/C: 96.6%
[2]
  viability, T/C: 99%
[13]
  viability, T/C: 91.9%
[14]
  viability, T/C: 95.9%
[15]
  viability, T/C: 86.9%
[16]
  viability, T/C: 40.8%
[3]
  viability, T/C: 63.9%
[4]
  viability, T/C: 79.2%
[17]
  viability, T/C: 74.4%
[18]
  viability, T/C: 74.3%
[19]
  viability, T/C: 59.6%
[20]
  viability, T/C: 39.7%
[5]
  viability, T/C: 78.6%
[6]
  viability, T/C: 75.2%
[21]
  viability, T/C: 73.4%
[22]
  viability, T/C: 60.7%
[23]
  viability, T/C: 53.8%
[24]
  viability, T/C: 30.6%
[7]
  viability, T/C: 70.7%
[8]
  viability, T/C: 46.3%
[25]
  viability, T/C: 58.2%
[26]
  viability, T/C: 52.7%
[27]
  viability, T/C: 62.2%
[28]
  viability, T/C: 23.6%
[9]
  viability, T/C: 49.7%
[10]
  viability, T/C: 42.3%
[29]
  viability, T/C: 47.9%
[30]
  viability, T/C: 43.8%
[31]
  viability, T/C: 35%
[32]
  viability, T/C: 19.8%
[11]
  viability, T/C: 51%
[12]
  viability, T/C: 40.5%
[33]
  viability, T/C: 41.2%
[34]
  viability, T/C: 45.4%
[35]
  viability, T/C: 41.2%
[36]
  viability, T/C: 20.1%
